The values below come from patent US20220380319A1 (Bial - R&D Investments, S.A., priority 2019, published 2022).

Each structure is given as a SMILES string. ≈ marks a conversion by molar mass, not a printed value.

Data set [1] in a line: Compound solubility in water.
The target in another data set is T1, acid ceramidase (Homo sapiens, UniProt Q13510).
T1 construct: Cell lysates overexpressing acid ceramidase were used as the enzyme source; expressed in transfected cells
T1 sequence (Q13510 22-395): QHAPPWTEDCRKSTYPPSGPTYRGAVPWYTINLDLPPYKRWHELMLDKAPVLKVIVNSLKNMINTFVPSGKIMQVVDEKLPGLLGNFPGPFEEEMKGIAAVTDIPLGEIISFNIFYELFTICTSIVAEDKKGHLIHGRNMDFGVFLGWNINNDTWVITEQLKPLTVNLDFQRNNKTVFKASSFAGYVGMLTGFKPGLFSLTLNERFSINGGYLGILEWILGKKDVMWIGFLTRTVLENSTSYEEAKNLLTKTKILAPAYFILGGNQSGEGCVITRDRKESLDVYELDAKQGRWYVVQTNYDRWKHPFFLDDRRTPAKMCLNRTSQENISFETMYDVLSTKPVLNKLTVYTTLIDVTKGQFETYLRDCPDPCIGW
Nature of the data set: Acid ceramidase inhibition, biochemical fluorescent assay with cell lysates overexpressing acid ceramidase, substrate Rbm14-12. The note with it: substrate Rbm14-12 6.3 μM, pH 4.5. In a few lines:
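IC50 derived by four-parameter fitting of fluorescence (ex360 nm, em446 nm) produced after 1 hr in methanol/NaIO4/glycine stop buffer, pH 10.6. Reaction: 6.3 μM Rbm14-12, 1 hr RT, following 1 hr RT compound preincubation with 10 μg overexpressing-cell lysate protein in pH 4.5 NaAC/NaCl buffer.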

What is called solubility is the dissolved amount per volume that the medium holds. A low value points to little dissolved substance. Broadly, the IC50 is the concentration that inhibits the measured activity by half. A low value points to greater potency in that assay. For `CC(=O)N1CCN(c2cccc3c2ncn3C(=O)NCC2(CC(C)C)CC2)CC1` [Example 222, 4-(4-Acetylpiperazin-1-yl)-N-((1-iso-butyl-cyclopropyl)methyl)-1H-benzo[d]imidazole-1-carboxamide], the solubility in data set [1] was determined as 7 µg/mL (≈ 17.6 µM). Besides, the IC50 on acid ceramidase is under 200 nM.

With `CC(=O)N1CCN(c2cccc3c2ncn3C(=O)NCCCCC(C)C)CC1` [Example 223, 4-(4-Acetylpiperazin-1-yl)-N-(5-methylhexyl)-1H-benzo[d]imidazole-1-carboxamide], the solubility in data set [1] stood at 15 µg/mL (≈ 38.9 µM). The compound also came in with a half-maximal inhibitory concentration (IC50) at acid ceramidase of under 200 nM.

For `COc1nc2ccc(N3CCOCC3)cc2n1C(=O)NCCCc1ccc(F)cc1F` [Example 224a, N-(3-(2,4-Difluorophenyl)propyl)-2-methoxy-6-morpholino-1H-benzo[d]imidazole-1-carboxamide], the solubility in data set [1] amounted to 4 µg/mL (≈ 9.29 µM). In addition, the IC50 at acid ceramidase is under 200 nM.

As to `COc1nc2cc(N3CCOCC3)ccc2n1C(=O)NCCCc1ccc(F)cc1F` [Example 224b, N-(3-(2,4-difluorophenyl)propyl)-2-methoxy-5-morpholino-1H-benzo[d]-imidazole-1-carboxamide], the concentration in solution in data set [1] (solubility) came to 12 µg/mL (≈ 27.9 µM). This compound yielded a concentration for half-maximal inhibition (IC50) at acid ceramidase of under 200 nM.

Compound `CC(=O)N1CCN(c2cccc3c2ncn3C(=O)NCCCC(F)(F)F)CC1` [Example 225, 4-(4-Acetylpiperazin-1-yl)-N-(4,4,4-trifluorobutyl)-1H-benzo[d]imidazole-1-carboxamide] displayed a solubility in data set [1] of 8 µg/mL (≈ 20.1 µM). For the same compound, the IC50 against acid ceramidase was under 200 nM.

In data set [1], `C[C@@H]1CN(c2cccc3c2ncn3C(=O)NCCCC(F)(F)F)C[C@H](C)O1` [Example 226, 4-((2R,6S)-2,6-dimethylmorpholino)-N-(4,4,4-trifluorobutyl)-1H-benzo[d]imidazole-1-carboxamide] registered a solubility of 5 µg/mL (≈ 13 µM). Also, the IC50 at acid ceramidase lay in the range of 200 to 1000 nM.

Consider `CC(C)CC1(CNC(=O)n2cnc3c(N4CCOCC4)cccc32)CC1` [Example 227, N-((1-iso-Butylcyclopropyl)methyl)-4-morpholino-1H-benzo[d]imidazole-1-carboxamide], for which the solubility in data set [1] came to 16 µg/mL (≈ 44.9 µM). Further, the IC50 on acid ceramidase was under 200 nM.

With `COc1nc2ccc(N3CCOCC3)cc2n1C(=O)NCCCc1ccco1` [Example 228a, N-(3-(Furan-2-yl)propyl)-2-methoxy-6-morpholino-1H-benzo[d]imidazole-1-carboxamide], the solubility in data set [1] is 29 µg/mL (≈ 75.4 µM). The IC50 against acid ceramidase was in the range of 200 to 1000 nM.

On to `COc1nc2cc(N3CCOCC3)ccc2n1C(=O)NCCCc1ccco1` [Example 228b, N-(3-(furan-2-yl)propyl)-2-methoxy-5-morpholino-1H-benzo[d]imidazole-1-carboxamide], for which the concentration in solution in data set [1] (solubility) was 33 µg/mL (≈ 85.8 µM). The 50% inhibitory concentration (IC50) against acid ceramidase is 200 to 1000 nM.

The compound `COc1nc2ccc(N3CCOCC3)cc2n1C(=O)NCC1(CC2CC2)CC1` [Example 229a, N-((1-(Cyclopropylmethyl)cyclopropyl)-methyl)-2-methoxy-6-morpholino-1H-benzo[d]imidazole-1-carboxamide] yielded a solubility in data set [1] of 1 µg/mL (≈ 2.6 µM). Moreover, the IC50 on acid ceramidase lay within 200 to 1000 nM.

Turning to `COc1nc2cc(N3CCOCC3)ccc2n1C(=O)NCC1(CC2CC2)CC1` [Example 229b, N-((1-(cyclopropylmethyl)cyclopropyl)methyl)-2-methoxy-5-morpholino-1H-benzo[d]imidazole-1-carboxamide], the concentration in solution in data set [1] (solubility) came to 9 µg/mL (≈ 23.4 µM). In addition, at acid ceramidase, the IC50 is under 200 nM.

`COc1nc2ccc(N3CCOCC3)cc2n1C(=O)NCCC1CC1C(F)(F)F` (stereo not shown) [Example 230a, 2-Methoxy-6-morpholino-N-(2-(2-(trifluoromethyl)cyclopropyl)ethyl)-1H-benzo[d]imidazole-1-carboxamide] displayed a solubility in data set [1] of 26 µg/mL (≈ 63 µM). Further, the half-inhibitory concentration (IC50) at acid ceramidase was 200 to 1000 nM.

Take `COc1nc2cc(N3CCOCC3)ccc2n1C(=O)NCCC1CC1C(F)(F)F` (stereo not shown) [Example 230b, 2-methoxy-5-morpholino-N-(2-(2-(trifluoromethyl)cyclopropyl)-ethyl)-1H-benzo[d]imidazole-1-carboxamide]: in data set [1], the solubility came to 32 µg/mL (≈ 77.6 µM). At acid ceramidase, this compound showed an IC50 of 200 to 1000 nM.

For `COc1nc2ccc(N3CCOCC3)cc2n1C(=O)NCC1CC1Cc1ccccc1` (stereo not shown) [Example 231a, N-((2-benzylcyclopropyl)methyl)-2-methoxy-6-morpholino-1H-benzo[d]imidazole-1-carboxamide], the solubility in data set [1] was determined as 14 µg/mL (≈ 33.3 µM). This compound also showed an IC50 against acid ceramidase of 200 to 1000 nM.

On to `COc1nc2cc(N3CCOCC3)ccc2n1C(=O)NCC1CC1Cc1ccccc1` (stereo not shown) [Example 231b, N-((2-benzylcyclopropyl)methyl)-2-methoxy-5-morpholino-1H-benzo[d]imidazole-1-carboxamide], for which the concentration in solution in data set [1] (solubility) came to 13 µg/mL (≈ 30.9 µM). The IC50 on acid ceramidase is under 200 nM.

In data set [1], `COc1nc2ccc(N3CCOCC3)cc2n1C(=O)NCCCc1ccc(F)nc1` [Example 232a, N-(3-(6-Fluoropyridin-3-yl)propyl)-2-methoxy-6-morpholino-1H-benzo[d]imidazole-1-carboxamide] had a solubility of 25 µg/mL (≈ 60.5 µM). In addition, the IC50 against acid ceramidase was over 1000 nM.

In the case of `COc1nc2cc(N3CCOCC3)ccc2n1C(=O)NCCCc1ccc(F)nc1` [Example 232b, N-(3-(6-fluoropyridin-3-yl)propyl)-2-methoxy-5-morpholino-1H-benzo[d]imidazole-1-carboxamide], the solubility in data set [1] was found to be 25 µg/mL (≈ 60.5 µM). At acid ceramidase, the IC50 was over 1000 nM.

`COc1nc2ccc(N3CCOCC3)cc2n1C(=O)NCCCOC(F)(F)F` [Example 233a, 2-Methoxy-6-morpholino-N-(3-(trifluoromethoxy)propyl)-1H-benzo[d]imidazole-1-carboxamide] had a solubility in data set [1] of 30 µg/mL (≈ 74.6 µM). Further, the IC50 at acid ceramidase was in the range of 200 to 1000 nM.

Take `COc1nc2cc(N3CCOCC3)ccc2n1C(=O)NCCCOC(F)(F)F` [Example 233b, 2-methoxy-5-morpholino-N-(3-(trifluoromethoxy)propyl)-1H-benzo[d]imidazole-1-carboxamide]: the solubility in data set [1] stood at 29 µg/mL (≈ 72.1 µM). Also, the IC50 against acid ceramidase was in the range of 200 to 1000 nM.

The compound `CC(C)C(=O)N1CCN(c2cccc3c2ncn3C(=O)NCCCC2(C(F)(F)F)CC2)CC1` [Example 234, 4-(4-iso-Butyrylpiperazin-1-yl)-N-(3-(1-(trifluoromethyl)cyclopropyl)propyl)-1H-benzo[d]imidazole-1-carboxamide] displayed a solubility in data set [1] of 1 µg/mL (≈ 2.15 µM). The compound further registered an IC50 at acid ceramidase of under 200 nM.

`CC(=O)N1CCN(c2cccc3c2ncn3C(=O)NCCCC2(C(F)(F)F)CC2)CC1` [Example 235, 4-(4-Acetylpiperazin-1-yl)-N-(3-(1-(trifluoromethyl)cyclopropyl)propyl)-1H-benzo[d]imidazole-1-carboxamide] showed a solubility in data set [1] of 20 µg/mL (≈ 45.7 µM). For the same compound, on acid ceramidase, the 50% inhibitory concentration (IC50) was under 200 nM.

Compound `COc1nc2cc(N3CCN(C(C)=O)CC3)ccc2n1C(=O)NCCCc1ccccc1` [Example 236a, 5-(4-Acetylpiperazin-1-yl)-2-methoxy-N-(3-phenylpropyl)-1H-benzo[d]imidazole-1-carboxamide] yielded a solubility in data set [1] of 18 µg/mL (≈ 41.3 µM). For the same compound, at acid ceramidase, the IC50 was under 200 nM.

Regarding `COc1nc2ccc(N3CCN(C(C)=O)CC3)cc2n1C(=O)NCCCc1ccccc1` [Example 236b, 6-(4-acetylpiperazin-1-yl)-2-methoxy-N-(3-phenylpropyl)-1H-benzo[d]imidazole-1-carboxamide], the concentration in solution in data set [1] (solubility) was 23 µg/mL (≈ 52.8 µM). This compound also gave an IC50 against acid ceramidase of under 200 nM.

For the compound `COc1nc2cc(N3[C@@H]4CC[C@H]3COC4)ccc2n1C(=O)NCCCc1ccccc1` [Example 237a, 5-((1R,5S)-3-Oxa-8-azabicyclo[3.2.1]octan-8-yl)-2-methoxy-N-(3-phenylpropyl)-1H-benzo[d]imidazole-1-carboxamide], the concentration in solution in data set [1] (solubility) was 1 µg/mL (≈ 2.38 µM). This compound also returned an IC50 against acid ceramidase of under 200 nM.

Turning to `COc1nc2ccc(N3[C@@H]4CC[C@H]3COC4)cc2n1C(=O)NCCCc1ccccc1` [Example 237b, 6-((1R,5S)-3-oxa-8-azabicyclo[3.2.1]octan-8-yl)-2-methoxy-N-(3-phenylpropyl)-1H-benzo[d]imidazole-1-carboxamide], in data set [1], the solubility stood at 5 µg/mL (≈ 11.9 µM). The same compound displayed an IC50 against acid ceramidase of under 200 nM.

Compound `COc1nc2ccc(N3CCC4(CC3)COC4)cc2n1C(=O)NCCCc1ccccc1` [Example 238a, 2-Methoxy-N-(3-phenylpropyl)-6-(2-oxa-7-azaspiro[3,5]nonan-7-yl)-1H-benzo[d]imidazole-1-carboxamide] gave a solubility in data set [1] of 11 µg/mL (≈ 25.3 µM). The same compound yielded a half-maximal inhibitory concentration (IC50) against acid ceramidase of under 200 nM.

Take `COc1nc2cc(N3CCC4(CC3)COC4)ccc2n1C(=O)NCCCc1ccccc1` [Example 238b, 2-methoxy-N-(3-phenylpropyl)-5-(2-oxa-7-azaspiro[3.5]nonan-7-yl)-1H-benzo[d]-imidazole-1-carboxamide]: the concentration in solution in data set [1] (solubility) was 12 µg/mL (≈ 27.6 µM). For the same compound, the IC50 on acid ceramidase was 200 to 1000 nM.

Regarding `O=C(NCCCc1ccccc1)n1cnc2c(N3CCN4CCCC4C3)cccc21` (stereo not shown) [Example 239, 4-(Hexahydropyrrolo[1,2-a]pyrazin-2(1H)-yl)-N-(3-phenylpropyl)-1H-benzo[d]imidazole-1-carboxamide], the solubility in data set [1] amounted to 17 µg/mL (≈ 42.1 µM). In addition, the IC50 against acid ceramidase is under 200 nM.

In data set [1], `CN1[C@@H]2CC[C@H]1CN(c1cccc3c1ncn3C(=O)NCCCc1ccccc1)C2` [Example 240, 4-((1R,5S)-8-Methyl-3,8-diazabicyclo[3.2.1]octan-3-yl)-N-(3-phenylpropyl)-1H-benzo[d]imidazole-1-carboxamide] yielded a solubility of 28 µg/mL (≈ 69.4 µM). In addition, on acid ceramidase, the IC50 is 200 to 1000 nM.
